Values joined by “and” are separate entries in the source; they are usually repeats but may differ in a detail not shown here. Equal values may be shown once. Inconclusive results and toxic doses are left out.
Test system: L1210 leukemia ip in BDF1 mice, survival T/C
Assay: NCI In Vivo Anticancer Drug Screen. Data for tumor model L1210 Leukemia (intraperitoneal) in B6D2F1 (BDF1) mice
Details: endpoint: mean survival time, higher = longer survival
How it was run: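 Tumor was transplanted into mice, which were then dosed with test compound or vehicle alone. Survival was recorded for each group, and the treated figure was expressed relative to the control figure.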

[1] = dose: 100.0 mg/kg/injection, schedule: Q04DX003 (ip), vehicle: saline with Tween-80
[2] = dose: 200.0 mg/kg/injection, schedule: Q04DX003 (ip), vehicle: saline with Tween-80
[3] = dose: 100.0 mg/kg/injection, schedule: Q01DX001 (ip), vehicle: carboxymethylcellulose (CMC)
[4] = dose: 200.0 mg/kg/injection, schedule: Q01DX001 (ip), vehicle: carboxymethylcellulose (CMC)
[5] = dose: 400.0 mg/kg/injection, schedule: Q01DX001 (ip), vehicle: carboxymethylcellulose (CMC)
[6] = dose: 100.0 mg/kg/injection, schedule: Q01DX001 (ip), vehicle: saline
[7] = dose: 200.0 mg/kg/injection, schedule: Q01DX001 (ip), vehicle: saline
[8] = dose: 400.0 mg/kg/injection, schedule: Q01DX001 (ip), vehicle: saline
[9] = dose: 50.0 mg/kg/injection, schedule: Q01DX009 (ip), vehicle: Klucel (hydroxypropylcellulose) (HPC)
[10] = dose: 100.0 mg/kg/injection, schedule: Q01DX009 (ip), vehicle: Klucel (hydroxypropylcellulose) (HPC)
[11] = dose: 100.0 mg/kg/injection, schedule: Q04DX003 (ip), vehicle: Klucel (hydroxypropylcellulose) (HPC)
[12] = dose: 200.0 mg/kg/injection, schedule: Q01DX009 (ip), vehicle: Klucel (hydroxypropylcellulose) (HPC)
[13] = dose: 200.0 mg/kg/injection, schedule: Q04DX003 (ip), vehicle: Klucel (hydroxypropylcellulose) (HPC)
[14] = dose: 400.0 mg/kg/injection, schedule: Q04DX003 (ip), vehicle: Klucel (hydroxypropylcellulose) (HPC)
[15] = dose: 100.0 mg/kg/injection, schedule: Q01DX001 (ip), vehicle: Klucel (hydroxypropylcellulose) (HPC)
[16] = dose: 200.0 mg/kg/injection, schedule: Q01DX001 (ip), vehicle: Klucel (hydroxypropylcellulose) (HPC)
[17] = dose: 400.0 mg/kg/injection, schedule: Q01DX001 (ip), vehicle: Klucel (hydroxypropylcellulose) (HPC)
[18] = dose: 100.0 mg/kg/injection, schedule: Q01DX009 (ip), vehicle: saline with Tween-80
[19] = dose: 200.0 mg/kg/injection, schedule: Q01DX009 (ip), vehicle: saline with Tween-80
[20] = dose: 400.0 mg/kg/injection, schedule: Q01DX009 (ip), vehicle: Klucel (hydroxypropylcellulose) (HPC)

O=C(O)/C=C/C(=O)NNC(=O)/C=C/C(=O)O
T/C [1]: 98 % of control
T/C [2]: 98 % of control

Cc1ccc(-c2ccc(C)cc2[N+](=O)[O-])cc1
T/C [3]: 91 % of control
T/C [4]: 100 % of control
T/C [5]: 102 % of control

CC1(C)NC(C(=O)O)CS1 (centres undefined)
T/C [6]: 101 % of control
T/C [7]: 90 % of control
T/C [8]: 95 % of control

CC1O/C(=N\O)C(C)O1 (centres undefined)
T/C (dose: 100.0 mg/kg/injection, schedule: Q01DX009 (ip), vehicle: carboxymethylcellulose (CMC)): 95 % of control and 97 % of control
T/C (dose: 100.0 mg/kg/injection, schedule: Q04DX002 (ip), vehicle: carboxymethylcellulose (CMC)): 106 % of control and 115 % of control
T/C (dose: 100.0 mg/kg/injection, schedule: Q04DX003 (ip), vehicle: carboxymethylcellulose (CMC)): 93 % of control
T/C (dose: 200.0 mg/kg/injection, schedule: Q01DX009 (ip), vehicle: carboxymethylcellulose (CMC)): 93 % of control and 95 % of control
T/C (dose: 200.0 mg/kg/injection, schedule: Q04DX002 (ip), vehicle: carboxymethylcellulose (CMC)): 97 % of control and 102 % of control
T/C (dose: 200.0 mg/kg/injection, schedule: Q04DX003 (ip), vehicle: carboxymethylcellulose (CMC)): 101 % of control
T/C (dose: 400.0 mg/kg/injection, schedule: Q01DX009 (ip), vehicle: carboxymethylcellulose (CMC)): 93 % of control and 105 % of control
T/C (dose: 400.0 mg/kg/injection, schedule: Q04DX002 (ip), vehicle: carboxymethylcellulose (CMC)): 95 % of control
T/C (dose: 400.0 mg/kg/injection, schedule: Q04DX003 (ip), vehicle: carboxymethylcellulose (CMC)): 98 % of control

Cn1c(C=O)cc(=O)[nH]c1=S
T/C [9]: 92 % of control
T/C [10]: 93 % of control
T/C [11]: 100 % of control
T/C [12]: 93 % of control
T/C [13]: 105 % of control
T/C [14]: 100 % of control

COc1c([N+](=O)[O-])cc2c(c1C)OCOC2
T/C (dose: 12.5 mg/kg/injection, schedule: Q01DX009 (ip), vehicle: Klucel (hydroxypropylcellulose) (HPC)): 95 % of control
T/C (dose: 25.0 mg/kg/injection, schedule: Q01DX009 (ip), vehicle: Klucel (hydroxypropylcellulose) (HPC)): 95 % of control
T/C [9]: 95 % of control
T/C [15]: 92 % of control
T/C [16]: 93 % of control
T/C [17]: 102 % of control

CCOC(=O)CNS(=O)(=O)c1ccccc1
T/C [6]: 98 % of control
T/C [7]: 101 % of control
T/C [8]: 101 % of control

OCCN1CCN(CC/C=C2/c3ccccc3Sc3ccc(Cl)cc32)CC1
T/C (dose: 6.25 mg/kg/injection, schedule: Q01DX001 (ip), vehicle: saline): 96 % of control
T/C (dose: 8.0 mg/kg/injection, schedule: Q01DX015 (ip), vehicle: saline): 107 % of control
T/C (dose: 12.5 mg/kg/injection, schedule: Q01DX001 (ip), vehicle: saline): 102 % of control
T/C (dose: 12.5 mg/kg/injection, schedule: Q01DX009 (ip), vehicle: saline): 108 % of control
T/C (dose: 25.0 mg/kg/injection, schedule: Q01DX001 (ip), vehicle: saline): 98 % of control and 122 % of control
T/C (dose: 25.0 mg/kg/injection, schedule: Q01DX009 (ip), vehicle: saline): 116 % of control
T/C (dose: 25.0 mg/kg/injection, schedule: Q04DX003 (ip), vehicle: saline): 110 % of control
T/C (dose: 37.5 mg/kg/injection, schedule: Q01DX001 (ip), vehicle: saline): 101 % of control
T/C (dose: 50.0 mg/kg/injection, schedule: Q01DX001 (ip), vehicle: saline): 113 % of control
T/C (dose: 50.0 mg/kg/injection, schedule: Q04DX003 (ip), vehicle: saline): 116 % of control
T/C (dose: 75.0 mg/kg/injection, schedule: Q01DX001 (ip), vehicle: saline): 102 % of control and 120 % of control
T/C [6]: 100 % of control

c1ccc(C2=NOC(c3ccccc3)C2)cc1 (centres undefined)
T/C (dose: 75.0 mg/kg/injection, schedule: Q01DX009 (ip), vehicle: Klucel (hydroxypropylcellulose) (HPC)): 105 % of control
T/C (dose: 75.0 mg/kg/injection, schedule: Q04DX003 (ip), vehicle: Klucel (hydroxypropylcellulose) (HPC)): 95 % of control
T/C (dose: 150.0 mg/kg/injection, schedule: Q01DX009 (ip), vehicle: Klucel (hydroxypropylcellulose) (HPC)): 105 % of control
T/C (dose: 150.0 mg/kg/injection, schedule: Q04DX003 (ip), vehicle: Klucel (hydroxypropylcellulose) (HPC)): 100 % of control
T/C (dose: 300.0 mg/kg/injection, schedule: Q01DX009 (ip), vehicle: Klucel (hydroxypropylcellulose) (HPC)): 100 % of control
T/C (dose: 300.0 mg/kg/injection, schedule: Q04DX003 (ip), vehicle: Klucel (hydroxypropylcellulose) (HPC)): 95 % of control

COC(C(C)C)[CH]1[Hg][O]C1=O (centres undefined)
T/C (dose: 0.5 mg/kg/injection, schedule: Q01DX001 (ip), vehicle: steriod suspending solution): 103 % of control
T/C (dose: 1.0 mg/kg/injection, schedule: Q01DX001 (ip), vehicle: steriod suspending solution): 108 % of control
T/C (dose: 2.0 mg/kg/injection, schedule: Q01DX001 (ip), vehicle: steriod suspending solution): 111 % of control

Nc1nc(N)c2nc(CNc3ccc(C(=O)NC(CCCCC(=O)O)C(=O)O)cc3)cnc2n1 (centres undefined)
T/C (dose: 20.0 mg/kg/injection, schedule: Q01DX009 (ip), vehicle: sodium bicarbonate): 157 % of control

O=C(O)c1ccc(NC(=O)c2ccc3ccccc3c2O)cc1
T/C (dose: 100.0 mg/kg/injection, schedule: Q01DX001 (ip), vehicle: saline with Tween-80): 104 % of control
T/C [18]: 109 % of control
T/C [1]: 102 % of control
T/C (dose: 200.0 mg/kg/injection, schedule: Q01DX001 (ip), vehicle: saline with Tween-80): 103 % of control
T/C [19]: 110 % of control
T/C [2]: 100 % of control
T/C (dose: 400.0 mg/kg/injection, schedule: Q01DX001 (ip), vehicle: saline with Tween-80): 101 % of control
T/C (dose: 400.0 mg/kg/injection, schedule: Q04DX003 (ip), vehicle: saline with Tween-80): 96 % of control

COc1ccc(CNCCNCCNCc2ccc(OC)cc2)cc1
T/C [18]: 107 % of control
T/C (dose: 100.0 mg/kg/injection, schedule: Q04DX003 (ip), vehicle: saline): 104 % of control
T/C [19]: 109 % of control
T/C (dose: 200.0 mg/kg/injection, schedule: Q04DX003 (ip), vehicle: saline): 102 % of control
T/C (dose: 400.0 mg/kg/injection, schedule: Q01DX009 (ip), vehicle: saline with Tween-80): 102 % of control
T/C (dose: 400.0 mg/kg/injection, schedule: Q04DX003 (ip), vehicle: saline): 104 % of control

O=C1c2ccccc2-c2cccc(I)c21
T/C [3]: 99 % of control
T/C [4]: 101 % of control
T/C [5]: 92 % of control

O=C1OCC/C1=C/OCCCCCCO/C=C1/CCOC1=O
T/C (dose: 100.0 mg/kg/injection, schedule: Q04DX002 (ip), vehicle: Klucel (hydroxypropylcellulose) (HPC)): 102 % of control
T/C (dose: 200.0 mg/kg/injection, schedule: Q04DX002 (ip), vehicle: Klucel (hydroxypropylcellulose) (HPC)): 102 % of control
T/C (dose: 400.0 mg/kg/injection, schedule: Q04DX002 (ip), vehicle: Klucel (hydroxypropylcellulose) (HPC)): 91 % of control

COc1cc(Cl)ccc1NC(=O)N(C)C1CCCCC1
T/C [10]: 104 % of control
T/C [12]: 104 % of control
T/C [20]: 95 % of control

c1ccc2c(c1)C(=NOc1nc3ccccc3c3ccccc13)c1ccccc1-2
T/C [15]: 96 % of control
T/C [11]: 93 % of control
T/C [16]: 91 % of control
T/C [13]: 95 % of control
T/C [17]: 86 % of control
T/C [14]: 99 % of control

c1ccc2c(c1)-c1ccccc1-2
T/C (dose: 50.0 mg/kg/injection, schedule: Q01DX001 (ip), vehicle: carboxymethylcellulose (CMC)): 97 % of control
T/C [3]: 97 % of control
T/C [4]: 97 % of control
T/C [5]: 103 % of control

CC(=O)OC1=C(Cl)C(=O)C(OC(C)=O)=C(Cl)C1=O
T/C (dose: 50.0 mg/kg/injection, schedule: Q04DX003 (ip), vehicle: Klucel (hydroxypropylcellulose) (HPC)): 106 % of control
T/C [11]: 100 % of control
T/C [13]: 100 % of control
T/C [14]: 92 % of control

CN(C)c1ccc(C=C2/C(=N\O)c3ccccc3/C2=N/O)cc1
T/C [10]: 98 % of control
T/C [12]: 96 % of control
T/C [20]: 94 % of control
